Experimental data: patent publication US20240270762A1, “PENICILLIN-BINDING PROTEIN INHIBITORS” (priority 2021, published 2024)
In brackets after ≈: the same amount, converted by molar mass.

Columns and labels:
N. gonorrhoeae WHO L = experiment: Liquid broth MIC in Fastidious broth; conditions: Neisseria gonorrhoeae, read-out: Minimum Inhibitory Concentration (MIC), N. gonorrhoeae WHO L
N. gonorrhoeae WHO G = experiment: Liquid broth MIC in Fastidious broth; conditions: Neisseria gonorrhoeae, read-out: Minimum Inhibitory Concentration (MIC), N. gonorrhoeae WHO G
Procedure: Additional antibacterial testing of the series was performed in 8 reference strains of N. gonorrhoeae (ATCC 49226, FA1090, MS 11, WHO G, WHO L, WHO M, WHO K, WHO X, WHO Z, WHO Q, CDC-0197). ATCC 49226, FA1090, MS11, WHO G, WHO L, and WHO M produce wild type or wild-type like PBP2. WHO K, WHO X, WHO Z, WHO Q, and CDC-0197 produce mosaic PBP2. Liquid broth-based assays were used for antibacterial testing of PBP inhibitors in Neisseria gonorrhoeae. Briefly, cryo-preserved bacterial cultures of clinical strains were streaked for isolation on Chocolate Agar (72 g/L (2×) GC Agar Base (BD #228950) and 2% (2×) Hemoglobin was autoclaved at 121° C. for 20 minutes to sterilize. Once cooled to ˜50° C. the 2×GC Agar Base and 2× Hemoglobin solutions are combined and 1% IsoVitaleX Enrichment (BD #211876) was added to the solution). Strains were incubated at 36° C. and 5% CO2 to allow growth of colonies, 24 hours before inoculum preparation. 2-fold serial dilutions of test compounds were conducted in a 96 well plate with a final volume of 75 μL per well at 2-fold the final desired concentration in Fastidious broth (Remel #R07664). For preparation of assay inoculum, a direct suspension was prepared by aseptically swabbing 10-15 colonies from agar plates into culture tubes containing 2 mL of fresh sterile saline. After the dilution plates were set up, direct suspensions were then diluted in a cuvette containing sterile saline and the optical density was measured at 600 nm. Inocula were diluted such that 75 μL of this culture in Fastidious broth results in a starting bacterial concentration of 5×10^5 CFU/mL when added to the dilution plates. The plates were incubated for ˜24 hours at 36° C. and 5% CO2.

P. aeruginosa ATCC 35151 = experiment: microbe, parasite or virus in culture; type: cell-based; conditions: Pseudomonas aeruginosa, ATCC35151, read-out: MIC P. aeruginosa ATCC 35151
[1] = test system: N. gonorrhoeae ATCC 49226; experiment: Liquid broth MIC in Fastidious broth; conditions: Neisseria gonorrhoeae, ATCC49226, read-out: Minimum Inhibitory Concentration (MIC), N. gonorrhoeae ATCC 49226
E. coli 901C = experiment: microbe, parasite or virus in culture; type: cell-based; conditions: Escherichia coli, read-out: MIC E. coli 901C
N. gonorrhoeae MS11 = experiment: Liquid broth MIC in Fastidious broth; conditions: Neisseria gonorrhoeae, MS11, read-out: Minimum Inhibitory Concentration (MIC), N. gonorrhoeae MS11
K. pneumoniae 848844 = experiment: microbe, parasite or virus in culture; type: cell-based; conditions: Klebsiella pneumoniae, 848844, read-out: MIC K. pneumoniae 848844
E. coli D22 = experiment: microbe, parasite or virus in culture; type: cell-based; conditions: Escherichia coli, D22, read-out: MIC E. coli D22
K. pneumoniae UMM = experiment: microbe, parasite or virus in culture; type: cell-based; conditions: Klebsiella pneumoniae, read-out: MIC K. pneumoniae UMM
[2] = molecular target: T1, PBP3 from Escherichia coli (K-12) (Escherichia coli, UniProt P0AD68); experiment: Bocillin-FL fluorescence polarization competition binding, E. coli PBP3
T1 construct: made in house
T1 sequence (P0AD68 1-577): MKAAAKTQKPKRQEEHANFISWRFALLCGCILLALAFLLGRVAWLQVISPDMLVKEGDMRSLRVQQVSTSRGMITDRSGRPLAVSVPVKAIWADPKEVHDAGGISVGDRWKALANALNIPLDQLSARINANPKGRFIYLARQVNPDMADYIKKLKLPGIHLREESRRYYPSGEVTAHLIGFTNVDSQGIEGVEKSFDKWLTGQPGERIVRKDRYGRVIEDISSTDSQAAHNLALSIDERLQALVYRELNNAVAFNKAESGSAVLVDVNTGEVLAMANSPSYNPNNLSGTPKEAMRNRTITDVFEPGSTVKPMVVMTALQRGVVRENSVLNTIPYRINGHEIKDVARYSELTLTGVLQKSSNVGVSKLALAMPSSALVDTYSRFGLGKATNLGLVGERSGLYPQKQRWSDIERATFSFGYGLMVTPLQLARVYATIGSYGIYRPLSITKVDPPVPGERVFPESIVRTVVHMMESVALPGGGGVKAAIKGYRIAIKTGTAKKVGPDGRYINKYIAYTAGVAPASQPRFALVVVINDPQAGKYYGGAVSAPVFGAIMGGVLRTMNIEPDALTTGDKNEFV
In short: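 Purified PBPs pre-incubated with inhibitor (E. coli PBP3 1.5 μM, 30 min; P. aeruginosa PBP3 0.75 μM, A. baumannii PBP1a 1 μM and PBP3 0.2 μM, 15 min), then Bocillin-FL 0.1 μM (0.05 μM for PBP1a) added; FP read up to 60 min. EC50 = concentration halving bound Bocillin-FL.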

E. coli AG100 = experiment: microbe, parasite or virus in culture; type: cell-based; conditions: Escherichia coli, AG100, read-out: MIC E. coli AG100
N. gonorrhoeae WHO M = experiment: Liquid broth MIC in Fastidious broth; conditions: Neisseria gonorrhoeae, read-out: Minimum Inhibitory Concentration (MIC), N. gonorrhoeae WHO M
N. gonorrhoeae WHO X = experiment: Liquid broth MIC in Fastidious broth; conditions: Neisseria gonorrhoeae, read-out: Minimum Inhibitory Concentration (MIC), N. gonorrhoeae WHO X
Procedure: Liquid broth-based assays were used for antibacterial testing of PBP inhibitors in Neisseria gonorrhoeae. Briefly, cryo-preserved bacterial cultures of clinical strains were streaked for isolation on Chocolate Agar (72 g/L (2×) GC Agar Base (BD #228950) and 2% (2×) Hemoglobin was autoclaved at 121° C. for 20 minutes to sterilize. Once cooled to ˜50° C. the 2×GC Agar Base and 2× Hemoglobin solutions are combined and 1% IsoVitaleX Enrichment (BD #211876) was added to the solution). Strains were incubated at 36° C. and 5% CO2 to allow growth of colonies, 24 hours before inoculum preparation. 2-fold serial dilutions of test compounds were conducted in a 96 well plate with a final volume of 75 μL per well at 2-fold the final desired concentration in Fastidious broth (Remel #R07664). For preparation of assay inoculum, a direct suspension was prepared by aseptically swabbing 10-15 colonies from agar plates into culture tubes containing 2 mL of fresh sterile saline. After the dilution plates were set up, direct suspensions were then diluted in a cuvette containing sterile saline and the optical density was measured at 600 nm. Inocula were diluted such that 75 μL of this culture in Fastidious broth results in a starting bacterial concentration of 5×10^5 CFU/mL when added to the dilution plates. The plates were incubated for ˜24 hours at 36° C. and 5% CO2.

E. coli AG100A = experiment: Broth microdilution MIC in CAMHB; type: cell-based; conditions: Escherichia coli, read-out: MIC E. coli AG100A

Row | Compound | MIC (N. gonorrhoeae WHO L) [µg/mL] | MIC (N. gonorrhoeae WHO G) [µg/mL] | MIC (P. aeruginosa ATCC 35151) [µg/mL] | MIC [1] [µg/mL] | MIC (E. coli 901C) [µg/mL] | MIC (N. gonorrhoeae MS11) [µg/mL] | MIC (K. pneumoniae 848844) [µg/mL] | MIC (E. coli D22) [µg/mL] | MIC (K. pneumoniae UMM) [µg/mL] | EC50 [2] [µM] | MIC (E. coli AG100) [µg/mL] | MIC (N. gonorrhoeae WHO M) [µg/mL] | MIC (N. gonorrhoeae WHO X) [µg/mL] | MIC (E. coli AG100A) [µg/mL]
1 | O=C1CC[C@H](C(=O)NC(C(=O)N[C@H]2Cc3cccc(C(=O)O)c3OB2O)c2ccc(P(=O)(O)O)cc2)N1 (stereo partly drawn) [Example 53, (3R)-2-hydroxy-3-(2-((R)-5-oxopyrrolidine-2-carboxamido)-2-(4-phosphonophenyl)acetamido)-3,4-dihydro-2H-benzo[e][1,2]oxaborinine-8-carboxylic acid] | 16 to 32 (≈ 30.1 to 60.2 µM) | 1 to 2 (≈ 1.88 to 3.76 µM) | 8 to 16 (≈ 15.1 to 30.1 µM) | 1 to 2 (≈ 1.88 to 3.76 µM) | 8 to 16 (≈ 15.1 to 30.1 µM) | 1 to 2 (≈ 1.88 to 3.76 µM) | > 128 | 32 to 64 (≈ 60.2 to 120 µM) | > 128 | 50 to 250 | > 128 | 1 to 2 (≈ 1.88 to 3.76 µM) | 16 to 32 (≈ 30.1 to 60.2 µM) | > 128
2 | CCN1CCN(C(=O)NC(C(=O)N[C@H]2Cc3cccc(C(=O)O)c3OB2O)c2ccc(P(=O)(O)O)cc2)C1=O (stereo partly drawn) [Example 42, (3R)-3-(2-(3-ethyl-2-oxoimidazolidine-1-carboxamido)-2-(4-phosphonophenyl)acetamido)-2-hydroxy-3,4-dihydro-2H-benzo[e][1,2]oxaborinine-8-carboxylic acid] | 1 to 2 (≈ 1.78 to 3.57 µM) | < 1 | < 1 | < 1 | < 1 | < 1 | > 128 | 2 to 4 (≈ 3.57 to 7.14 µM) | 32 to 64 (≈ 57.1 to 114 µM) | < 10 | 32 to 64 (≈ 57.1 to 114 µM) | < 1 | 1 to 2 (≈ 1.78 to 3.57 µM) | 8 to 16 (≈ 14.3 to 28.6 µM)
3 | CS(=O)(=O)N1CCN(C(=O)N[C@@H](C(=O)N[C@H]2Cc3ccc(F)c(C(=O)O)c3OB2O)c2ccc(P(=O)(O)O)c(F)c2)C1=O (single isomer, unassigned) [Example 19] | < 1 | < 1 | 2 to 4 (≈ 3.09 to 6.19 µM) | < 1 | < 1 | < 1 | > 128 | 8 to 16 (≈ 12.4 to 24.8 µM) | > 128 | < 10 | > 128 | < 1 | < 1 | 32 to 64 (≈ 49.5 to 99 µM)
4 | O=C1CC[C@@H](C(=O)NC(C(=O)N[C@H]2Cc3cccc(C(=O)O)c3OB2O)c2ccc(P(=O)(O)O)cc2)N1 (stereo partly drawn) [Example 64, (3R)-2-hydroxy-3-(2-((S)-5-oxopyrrolidine-2-carboxamido)-2-(4-phosphonophenyl)acetamido)-3,4-dihydro-2H-benzo[e][1,2]oxaborinine-8-carboxylic acid] | 16 to 32 (≈ 30.1 to 60.2 µM) | 4 to 8 (≈ 7.53 to 15.1 µM) | 8 to 16 (≈ 15.1 to 30.1 µM) | 4 to 8 (≈ 7.53 to 15.1 µM) | 8 to 16 (≈ 15.1 to 30.1 µM) | 4 to 8 (≈ 7.53 to 15.1 µM) | > 128 | 32 to 64 (≈ 60.2 to 120 µM) | > 128 | 50 to 250 | > 128 | 1 to 2 (≈ 1.88 to 3.76 µM) | 16 to 32 (≈ 30.1 to 60.2 µM) | > 128
5 | O=C(O)c1cccc2c1OB(O)[C@@H](NC(=O)C(NC(=O)C(F)(F)F)c1ccc(P(=O)(O)O)cc1)C2 (stereo partly drawn) [Example 172, (3R)-2-hydroxy-3-(2-(4-phosphonophenyl)-2-(2,2,2-trifluoroacetamido)acetamido)-3,4-dihydro-2H-benzo[e][1,2]oxaborinine-8-carboxylic acid] | 16 to 32 (≈ 31 to 62 µM) | 16 to 32 (≈ 31 to 62 µM) | 32 to 64 (≈ 62 to 124 µM) | 16 to 32 (≈ 31 to 62 µM) | 32 to 64 (≈ 62 to 124 µM) | 16 to 32 (≈ 31 to 62 µM) | > 128 | > 128 | > 128 | > 250 | > 128 | 4 to 8 (≈ 7.75 to 15.5 µM) | 16 to 32 (≈ 31 to 62 µM) | > 128
6 | N#Cc1ccnc(C(=O)NC(C(=O)N[C@H]2Cc3cccc(C(=O)O)c3OB2O)c2ccc(P(=O)(O)O)cc2)c1 (stereo partly drawn) [Example 179, (3R)-3-(2-(4-cyanopicolinamido)-2-(4-phosphonophenyl)acetamido)-2-hydroxy-3,4-dihydro-2H-benzo[e][1,2]oxaborinine-8-carboxylic acid] | 16 to 32 (≈ 29.1 to 58.2 µM) | 16 to 32 (≈ 29.1 to 58.2 µM) | 2 to 4 (≈ 3.63 to 7.27 µM) | 16 to 32 (≈ 29.1 to 58.2 µM) | 8 to 16 (≈ 14.5 to 29.1 µM) | 16 to 32 (≈ 29.1 to 58.2 µM) | > 128 | 32 to 64 (≈ 58.2 to 116 µM) | > 128 | 50 to 250 | > 128 | 4 to 8 (≈ 7.27 to 14.5 µM) | 16 to 32 (≈ 29.1 to 58.2 µM) | > 128
7 | N[C@@H](C(=O)N[C@H]1Cc2cccc(C(=O)O)c2OB1O)c1ccc(P(=O)(O)O)cc1 (single isomer, unassigned) [Example 171] | > 64 | > 64 | > 128 | > 64 | > 128 | > 64 | > 128 | > 128 | > 128 | > 250 | > 128 | > 64 | > 64 | > 128
8 | N#Cc1cccc(C(=O)N[C@@H](C(=O)N[C@H]2Cc3cccc(C(=O)O)c3OB2O)c2ccc(P(=O)(O)O)cc2)n1 [Example 180, (R)-3-((R)-2-(6-cyanopicolinamido)-2-(4-phosphonophenyl)acetamido)-2-hydroxy-3,4-dihydro-2H-benzo[e][1,2]oxaborinine-8-carboxylic acid] | 4 to 8 (≈ 7.27 to 14.5 µM) | < 1 | 2 to 4 (≈ 3.63 to 7.27 µM) | < 1 | < 1 | 1 to 2 (≈ 1.82 to 3.63 µM) | > 128 | 2 to 4 (≈ 3.63 to 7.27 µM) | > 128 | < 10 | > 128 | < 1 | 4 to 8 (≈ 7.27 to 14.5 µM) | 8 to 16 (≈ 14.5 to 29.1 µM)
9 | CC(C)(C)C(=O)NC(C(=O)N[C@H]1Cc2cccc(C(=O)O)c2OB1O)c1ccc(P(=O)(O)O)cc1 (stereo partly drawn) [Example 29, (3R)-2-hydroxy-3-(2-(4-phosphonophenyl)-2-pivalamidoacetamido)-3,4-dihydro-2H-benzo[e][1,2]oxaborinine-8-carboxylic acid] | 16 to 32 (≈ 31.7 to 63.5 µM) | 16 to 32 (≈ 31.7 to 63.5 µM) | 2 to 4 (≈ 3.97 to 7.93 µM) | 16 to 32 (≈ 31.7 to 63.5 µM) | 8 to 16 (≈ 15.9 to 31.7 µM) | 16 to 32 (≈ 31.7 to 63.5 µM) | > 128 | 8 to 16 (≈ 15.9 to 31.7 µM) | 32 to 64 (≈ 63.5 to 127 µM) | 50 to 250 | > 128 | 4 to 8 (≈ 7.93 to 15.9 µM) | 16 to 32 (≈ 31.7 to 63.5 µM) | > 128
10 | O=C(N[C@H](C(=O)N[C@H]1Cc2cccc(C(=O)O)c2OB1O)c1ccc(P(=O)(O)O)cc1)c1ccc(C(F)(F)F)cn1 (single isomer, unassigned) [Example 192] | 4 to 8 (≈ 6.74 to 13.5 µM) | 1 to 2 (≈ 1.69 to 3.37 µM) | 8 to 16 (≈ 13.5 to 27 µM) | 1 to 2 (≈ 1.69 to 3.37 µM) | < 1 | 1 to 2 (≈ 1.69 to 3.37 µM) | > 128 | 8 to 16 (≈ 13.5 to 27 µM) | > 128 | 10 to 50 | > 128 | < 1 | 16 to 32 (≈ 27 to 53.9 µM) | 32 to 64 (≈ 53.9 to 108 µM)
11 | O=C(O)c1cccc2c1OB(O)[C@@H](NC(=O)[C@@H](NC(=O)c1ccn[nH]c1=O)c1ccc(P(=O)(O)O)cc1)C2 (single isomer, unassigned) [Example 177] | 4 to 8 (≈ 7.38 to 14.8 µM) | < 1 | 2 to 4 (≈ 3.69 to 7.38 µM) | 1 to 2 (≈ 1.84 to 3.69 µM) | 2 to 4 (≈ 3.69 to 7.38 µM) | 1 to 2 (≈ 1.84 to 3.69 µM) | > 128 | 32 to 64 (≈ 59 to 118 µM) | > 128 | 10 to 50 | > 128 | < 1 | 16 to 32 (≈ 29.5 to 59 µM) | > 128
12 | CCN1CCN(C(=O)N[C@@H](C(=O)N[C@H]2Cc3cccc(C(=O)O)c3OB2O)c2ccc(P(=O)(O)O)c(F)c2)C(=O)C1=O (single isomer, unassigned) [Example 7] | < 1 | < 1 | < 1 | < 1 | < 1 | < 1 | > 128 | 2 to 4 (≈ 3.3 to 6.6 µM) | 32 to 64 (≈ 52.8 to 106 µM) | < 10 | 8 to 16 (≈ 13.2 to 26.4 µM) | < 1 | < 1 | 8 to 16 (≈ 13.2 to 26.4 µM)
13 | CCN1CCN(C(=O)NC(C(=O)N[C@H]2Cc3cccc(C(=O)O)c3OB2O)c2cccc(CP(=O)(O)O)c2)C(=O)C1=O (stereo partly drawn) [Example 22, (3R)-3-(2-(4-ethyl-2,3-dioxopiperazine-1-carboxamido)-2-(3-(phosphonomethyl)phenyl)acetamido)-2-hydroxy-3,4-dihydro-2H-benzo[e][1,2]oxaborinine-8-carboxylic acid] | 16 to 32 (≈ 26.6 to 53.1 µM) | < 1 | < 1 | 1 to 2 (≈ 1.66 to 3.32 µM) | < 1 | 1 to 2 (≈ 1.66 to 3.32 µM) | > 128 | 2 to 4 (≈ 3.32 to 6.64 µM) | 32 to 64 (≈ 53.1 to 106 µM) | < 10 | 8 to 16 (≈ 13.3 to 26.6 µM) | < 1 | 4 to 8 (≈ 6.64 to 13.3 µM) | 8 to 16 (≈ 13.3 to 26.6 µM)
